# Test results: the NIST ThermoML archive (doi:10.1016/j.jct.2017.01.016)
# ± gives the expanded uncertainty stated by the source.
# Experiment: xn = mol fraction of the nth substance listed
# Conditions: 101 kPa, Liquid; for viscosity: Capillary tube (Ostwald / Ubbelohde) method; for speed of sound: Frequency=3 MHz, Linear variable-path acoustic interferometer
structure (smiles),measurement,setting,value
"Cc1ccccc1C [1,2-dimethylbenzene] + C1COCCO1",viscosity,"308.15 K, x2 = 0",0.669 ± 0.014 mPa·s
same,viscosity,"308.15 K, x2 = 0.0672",0.6862 ± 0.014 mPa·s
same,viscosity,"308.15 K, x2 = 0.1391",0.7045 ± 0.015 mPa·s
same,viscosity,"308.15 K, x2 = 0.2103",0.724 ± 0.015 mPa·s
same,viscosity,"308.15 K, x2 = 0.2853",0.746 ± 0.016 mPa·s
same,viscosity,"308.15 K, x2 = 0.3543",0.7675 ± 0.016 mPa·s
same,viscosity,"308.15 K, x2 = 0.4293",0.792 ± 0.017 mPa·s
same,viscosity,"308.15 K, x2 = 0.5092",0.8194 ± 0.017 mPa·s
same,viscosity,"308.15 K, x2 = 0.581",0.8452 ± 0.018 mPa·s
same,viscosity,"308.15 K, x2 = 0.6518",0.8715 ± 0.018 mPa·s
same,viscosity,"308.15 K, x2 = 0.7248",0.8997 ± 0.019 mPa·s
same,viscosity,"308.15 K, x2 = 0.7888",0.9256 ± 0.019 mPa·s
same,viscosity,"308.15 K, x2 = 0.8595",0.9546 ± 0.02 mPa·s
same,viscosity,"308.15 K, x2 = 0.9298",0.9846 ± 0.021 mPa·s
same,speed of sound,"308.15 K, x2 = 0",1313.3 ± 1.7 m/s
same,speed of sound,"308.15 K, x2 = 0.0672",1306.3 ± 1.7 m/s
same,speed of sound,"308.15 K, x2 = 0.1391",1299.9 ± 1.6 m/s
same,speed of sound,"308.15 K, x2 = 0.2103",1293.9 ± 1.6 m/s
same,speed of sound,"308.15 K, x2 = 0.2853",1288.5 ± 1.6 m/s
same,speed of sound,"308.15 K, x2 = 0.3543",1284.3 ± 1.6 m/s
same,speed of sound,"308.15 K, x2 = 0.4293",1280.4 ± 1.6 m/s
same,speed of sound,"308.15 K, x2 = 0.5092",1277.8 ± 1.6 m/s
same,speed of sound,"308.15 K, x2 = 0.581",1276.7 ± 1.6 m/s
same,speed of sound,"308.15 K, x2 = 0.6518",1276.8 ± 1.6 m/s
same,speed of sound,"308.15 K, x2 = 0.7248",1278.4 ± 1.6 m/s
same,speed of sound,"308.15 K, x2 = 0.7888",1281.2 ± 1.6 m/s
same,speed of sound,"308.15 K, x2 = 0.8595",1285.9 ± 1.6 m/s
same,speed of sound,"308.15 K, x2 = 0.9298",1292.5 ± 1.6 m/s
same,viscosity,"313.15 K, x2 = 0",0.6315 ± 0.013 mPa·s
same,viscosity,"313.15 K, x2 = 0.0672",0.647 ± 0.014 mPa·s
same,viscosity,"313.15 K, x2 = 0.1391",0.6637 ± 0.014 mPa·s
same,viscosity,"313.15 K, x2 = 0.2103",0.6813 ± 0.014 mPa·s
same,viscosity,"313.15 K, x2 = 0.2853",0.7012 ± 0.015 mPa·s
same,viscosity,"313.15 K, x2 = 0.3543",0.7205 ± 0.015 mPa·s
same,viscosity,"313.15 K, x2 = 0.4293",0.7428 ± 0.015 mPa·s
same,viscosity,"313.15 K, x2 = 0.5092",0.7677 ± 0.016 mPa·s
same,viscosity,"313.15 K, x2 = 0.581",0.7912 ± 0.017 mPa·s
same,viscosity,"313.15 K, x2 = 0.6518",0.8152 ± 0.017 mPa·s
same,viscosity,"313.15 K, x2 = 0.7248",0.8408 ± 0.017 mPa·s
same,viscosity,"313.15 K, x2 = 0.7888",0.8642 ± 0.018 mPa·s
same,viscosity,"313.15 K, x2 = 0.8595",0.8906 ± 0.019 mPa·s
same,viscosity,"313.15 K, x2 = 0.9298",0.9176 ± 0.019 mPa·s
same,speed of sound,"313.15 K, x2 = 0",1298.5 ± 1.6 m/s
same,speed of sound,"313.15 K, x2 = 0.0672",1291 ± 1.6 m/s
same,speed of sound,"313.15 K, x2 = 0.1391",1284 ± 1.6 m/s
same,speed of sound,"313.15 K, x2 = 0.2103",1277.8 ± 1.6 m/s
same,speed of sound,"313.15 K, x2 = 0.2853",1272.1 ± 1.6 m/s
same,speed of sound,"313.15 K, x2 = 0.3543",1267.6 ± 1.6 m/s
same,speed of sound,"313.15 K, x2 = 0.4293",1263.5 ± 1.6 m/s
same,speed of sound,"313.15 K, x2 = 0.5092",1260.5 ± 1.6 m/s
same,speed of sound,"313.15 K, x2 = 0.581",1259 ± 1.6 m/s
same,speed of sound,"313.15 K, x2 = 0.6518",1258.6 ± 1.6 m/s
same,speed of sound,"313.15 K, x2 = 0.7248",1259.6 ± 1.6 m/s
same,speed of sound,"313.15 K, x2 = 0.7888",1262 ± 1.6 m/s
same,speed of sound,"313.15 K, x2 = 0.8595",1266 ± 1.6 m/s
same,speed of sound,"313.15 K, x2 = 0.9298",1271.8 ± 1.6 m/s
same,viscosity,"318.15 K, x2 = 0",0.5972 ± 0.013 mPa·s
same,viscosity,"318.15 K, x2 = 0.0672",0.6114 ± 0.013 mPa·s
same,viscosity,"318.15 K, x2 = 0.1391",0.6267 ± 0.013 mPa·s
same,viscosity,"318.15 K, x2 = 0.2103",0.6427 ± 0.013 mPa·s
same,viscosity,"318.15 K, x2 = 0.2853",0.661 ± 0.014 mPa·s
same,viscosity,"318.15 K, x2 = 0.3543",0.6786 ± 0.014 mPa·s
same,viscosity,"318.15 K, x2 = 0.4293",0.699 ± 0.015 mPa·s
same,viscosity,"318.15 K, x2 = 0.5092",0.7218 ± 0.015 mPa·s
same,viscosity,"318.15 K, x2 = 0.581",0.743 ± 0.015 mPa·s
same,viscosity,"318.15 K, x2 = 0.6518",0.7649 ± 0.016 mPa·s
same,viscosity,"318.15 K, x2 = 0.7248",0.7884 ± 0.017 mPa·s
same,viscosity,"318.15 K, x2 = 0.7888",0.8098 ± 0.017 mPa·s
same,viscosity,"318.15 K, x2 = 0.8595",0.834 ± 0.017 mPa·s
same,viscosity,"318.15 K, x2 = 0.9298",0.859 ± 0.018 mPa·s
same,speed of sound,"318.15 K, x2 = 0",1285.2 ± 1.6 m/s
same,speed of sound,"318.15 K, x2 = 0.0672",1277.2 ± 1.6 m/s
same,speed of sound,"318.15 K, x2 = 0.1391",1269.7 ± 1.6 m/s
same,speed of sound,"318.15 K, x2 = 0.2103",1263 ± 1.6 m/s
same,speed of sound,"318.15 K, x2 = 0.2853",1256.9 ± 1.6 m/s
same,speed of sound,"318.15 K, x2 = 0.3543",1252.1 ± 1.6 m/s
same,speed of sound,"318.15 K, x2 = 0.4293",1247.7 ± 1.6 m/s
same,speed of sound,"318.15 K, x2 = 0.5092",1244.1 ± 1.6 m/s
same,speed of sound,"318.15 K, x2 = 0.581",1242.1 ± 1.6 m/s
same,speed of sound,"318.15 K, x2 = 0.6518",1241.3 ± 1.6 m/s
same,speed of sound,"318.15 K, x2 = 0.7248",1241.7 ± 1.6 m/s
same,speed of sound,"318.15 K, x2 = 0.7888",1243.4 ± 1.6 m/s
same,speed of sound,"318.15 K, x2 = 0.8595",1246.6 ± 1.6 m/s
same,speed of sound,"318.15 K, x2 = 0.9298",1251.6 ± 1.6 m/s
